Test results taken from patent US10053454B2 (Bristol-Myers Squibb Company, priority 2013, dated 2018).

Target: BRD4 (Homo sapiens, UniProt O60885)
Test: Time Resolved Fluorescence Resonance Energy Transfer (TR-FRET) binding assay
Details: one of the FRET assays described (BRD4 construct not given)

`Cc1noc(C)c1-c1cc(C(N)=O)c2c(c1)c1ccc(C(=O)N(C)C)cc1n2S(C)(=O)=O` [Example 12, 3-(3,5-dimethyl-4-isoxazolyl)-N7,N7-dimethyl-9-(methylsulfonyl)-9H-carbazole-1,7-dicarboxamide] and `Cc1noc(C)c1-c1cc(C(N)=O)c2c(c1)c1ccc(C(=O)N3CCOCC3)cc1n2S(C)(=O)=O` [Example 5, 3-(3,5-dimethyl-4-isoxazolyl)-9-(methylsulfonyl)-7-(4-morpholinylcarbonyl)-9H-carbazole-1-carboxamide] cannot be ordered by IC50: less than 50 nM for the first, less than 50 nM for the second.

`Cc1noc(C)c1-c1cc(C(N)=O)c2c(c1)c1cc(Br)c(Br)cc1n2CC1CC1` [Example 35, 6,7-dibromo-9-(cyclopropylmethyl)-3-(3,5-dimethyl-4-isoxazolyl)-9H-carbazole-1-carboxamide] and `Cc1noc(C)c1-c1cc(C(N)=O)c2c(c1)c1ccc(O)cc1n2CC1CC1` [Example 48, 9-(cyclopropylmethyl)-3-(3,5-dimethyl-4-isoxazolyl)-7-hydroxy-9H-carbazole-1-carboxamide] cannot be ordered by IC50: less than 500 nM for the first, less than 500 nM for the second.

`Cc1cnc(-c2cc(-c3c(C)noc3C)cc3c2[nH]c2cc(C(=O)N4CCOCC4)ccc23)o1` [Example 62, 3-(3,5-dimethyl-4-isoxazolyl)-1-(5-methyl-1,3-oxazol-2-yl)-7-(4-morpholinylcarbonyl)-9H-carbazole] and `Cc1noc(C)c1-c1cc(C(N)=S)c2c(c1)c1ccc(C(=O)N3CCOCC3)cc1n2CC1CC1` [Example 68, 9-(cyclopropylmethyl)-3-(3,5-dimethyl-4-isoxazolyl)-7-(4-morpholinylcarbonyl)-9H-carbazole-1-carbothioamide] cannot be ordered by IC50: less than 5000 nM for the first, less than 5000 nM for the second.

`Cc1noc(C)c1-c1cc(C(N)=O)c2c(c1)c1ccc(CO)cc1n2CC1CC1` [Example 46, 9-(cyclopropylmethyl)-3-(3,5-dimethyl-4-isoxazolyl)-7-(hydroxymethyl)-9H-carbazole-1-carboxamide] and `Cc1noc(C)c1-c1cc(C(N)=O)c2c(c1)c1ccc(N)cc1n2CC1CC1` [Example 28, 7-amino-9-(cyclopropylmethyl)-3-(3,5-dimethyl-4-isoxazolyl)-9H-carbazole-1-carboxamide] cannot be ordered by IC50: less than 500 nM for the first, less than 500 nM for the second.

`Cc1noc(C)c1-c1cc(C(N)=O)c2c(c1)c1ccc(C(=O)N3CCCOCC3)cc1n2S(=O)(=O)C1CC1` [Example 25, 9-(cyclopropylsulfonyl)-3-(3,5-dimethyl-4-isoxazolyl)-7-(1,4-oxazepan-4-ylcarbonyl)-9H-carbazole-1-carboxamide] and `Cc1noc(C)c1-c1cc(C(N)=O)c2c(c1)c1ccc(C(=O)N3CCC(F)(F)CC3)cc1n2S(=O)(=O)C1CC1` [Example 26, 9-(cyclopropylsulfonyl)-7-((4,4-difluoro-1-piperidinyl)carbonyl)-3-(3,5-dimethyl-4-isoxazolyl)-9H-carbazole-1-carboxamide] cannot be ordered by IC50: less than 50 nM for the first, less than 50 nM for the second.

`Cc1oncc1-c1cc(C(N)=O)c2c(c1)c1ccc(C(=O)N3C[C@@H](C)O[C@@H](C)C3)cc1n2CC1CC1` [Example 57, 9-(cyclopropylmethyl)-7-((cis-2,6-dimethyl-4-morpholinyl)carbonyl)-3-(5-methyl-4-isoxazolyl)-9H-carbazole-1-carboxamide] and `Cc1n[nH]c(C)c1-c1cc(C(N)=O)c2c(c1)c1ccc(C(=O)N3C[C@@H](C)O[C@@H](C)C3)cc1n2CC1CC1` [Example 83, 9-(cyclopropylmethyl)-7-((cis-2,6-dimethyl-4-morpholinyl)carbonyl)-3-(3,5-dimethyl-1H-pyrazol-4-yl)-9H-carbazole-1-carboxamide] cannot be ordered by IC50: less than 500 nM for the first, less than 500 nM for the second.

`Cc1noc(C)c1-c1cc(C(N)=O)c2c(c1)c1ccc(C(=O)N3C(C)(C)CC(O)CC3(C)C)cc1n2S(C)(=O)=O` [Example 16, 3-(3,5-dimethyl-4-isoxazolyl)-7-((4-hydroxy-2,2,6,6-tetramethyl-1-piperidinyl)carbonyl)-9-(methylsulfonyl)-9H-carbazole-1-carboxamide] and `Cc1noc(C)c1-c1cc(C(N)=O)c2c(c1)c1ccc(C(=O)N3CCC(F)CC3)cc1n2S(C)(=O)=O` [Example 8, 3-(3,5-dimethyl-4-isoxazolyl)-7-((4-fluoro-1-piperidinyl)carbonyl)-9-(methylsulfonyl)-9H-carbazole-1-carboxamide] cannot be ordered by IC50: less than 50 nM for the first, less than 500 nM for the second.

`Cc1noc(C)c1-c1cc(C(N)=O)c2c(c1)c1ccc(C(C)(C)N3CCOCC3)cc1n2CC1CC1` [Example 52, 9-(cyclopropylmethyl)-3-(3,5-dimethyl-4-isoxazolyl)-7-(1-methyl-1-(4-morpholinyl)ethyl)-9H-carbazole-1-carboxamide] and `Cc1noc(C)c1-c1cc(C(N)=O)c2c(c1)c1ccc(NC(=O)OC(C)(C)C)cc1n2CC1CC1` [Example 27, tert-butyl(8-carbamoyl-9-(cyclopropylmethyl)-6-(3,5-dimethyl-4-isoxazolyl)-9H-carbazol-2-yl)carbamate] cannot be ordered by IC50: less than 50 nM for the first, less than 500 nM for the second.

`Cc1noc(C)c1-c1cc(C(N)=O)c2c(c1)c1c(C(=O)N3C[C@@H](C)O[C@@H](C)C3)cc(C(F)(F)F)cc1n2S(C)(=O)=O` [Example 73, 3-(3,5-dimethyl-4-isoxazolyl)-5-((cis-2,6-dimethyl-4-morpholinyl)carbonyl)-9-(methylsulfonyl)-7-(trifluoromethyl)-9H-carbazole-1-carboxamide] and `Cc1noc(C)c1-c1cc(C(N)=O)c2c(c1)c1c(C(=O)N3C[C@@H](C)O[C@@H](C)C3)cc(OC(F)(F)F)cc1n2S(C)(=O)=O` [Example 76, 3-(3,5-dimethyl-4-isoxazolyl)-5-((cis-2,6-dimethyl-4-morpholinyl)carbonyl)-9-(methylsulfonyl)-7-(trifluoromethoxy)-9H-carbazole-1-carboxamide] cannot be ordered by IC50: less than 500 nM for the first, less than 50 nM for the second.

`Cc1noc(C)c1-c1cc(-c2nnc[nH]2)c2c(c1)c1ccc(C(=O)N3C[C@@H](C)O[C@@H](C)C3)cc1n2CC1CC1` [Example 85, 9-(cyclopropylmethyl)-3-(3,5-dimethyl-4-isoxazolyl)-7-((cis-2,6-dimethyl-4-morpholinyl)carbonyl)-1-(1H-1,2,4-triazol-3-yl)-9H-carbazole] and `Cc1noc(C)c1-c1cc(C(N)=O)c2c(c1)c1ccc(-c3ccncc3)cc1n2CC1CC1` [Example 36, 9-(cyclopropylmethyl)-3-(3,5-dimethyl-4-isoxazolyl)-7-(4-pyridinyl)-9H-carbazole-1-carboxamide] cannot be ordered by IC50: less than 500 nM for the first, less than 500 nM for the second.

Work on `Cc1noc(C)c1-c1cc(C(N)=O)c2c(c1)c1c(C(=O)N3C[C@@H](C)O[C@@H](C)C3)cc(OC(F)(F)F)cc1n2S(=O)(=O)C1CC1` [Example 75, 9-(cyclopropylsulfonyl)-3-(3,5-dimethyl-4-isoxazolyl)-5-((cis-2,6-dimethyl-4-morpholinyl)carbonyl)-7-(trifluoromethoxy)-9H-carbazole-1-carboxamide] yielded an IC50 of less than 500 nM.
